Test results: US8986712B2, “Peptides derived from HIV-1 gp41 transmembrane domain for t-immunomodulation” (Yeda Research and Development Co., Ltd., priority 2009, dated 2015)
Ends that are not written are not given here.

Experiments:
[1] = system: T cells activated by PMA/ionomycin; assay: T-cell activation induced by PMA/ionomycin; type: cell-based, mice
Experimental: (§1) For some experiments, T cells were activated with immobilized anti-CD3 antibodies (Kaleeba et al., 1998, Int. Immunol. 10, 453-461) or PMA/ionomycin as described (Wang et al., 2002 Clin. Immunol. 105, 199-207). After 72 hours, at 37° C. in a 7.5% CO2 humidified atmosphere, the T-cells were pulsed with 1 μCi (H^3) thymidine, with a specific activity of 5.0 Ci/mmol, for 7 hours, and (H^3) thymidine incorporation was measured using a 96-well plate beta-counter. The mean cpm±Standard Error was calculated for each triplicate or quadruplicate. The results of T-cell proliferation experiments are shown as the percentage of T-cell proliferation inhibition triggered by the antigen in the absence of gp41 TMD peptides.
PMA/ionomycin activates the T cell downstream of the membrane regardless of the presence or absence of the TCR.

[2] = system: T-cell line specific to MOG p35-55; assay: T-cell proliferation induced by MOG 35-55 peptide and APC (H3-thymidine uptake); type: cell-based, mice; details: for cell survival in culture versus PBS control: T cells incubated with peptide
Experimental: T-cells were plated onto round 96-well plates in medium containing RPMI-1640 supplemented with 2.5% fetal calf serum (FCS), 100 U/ml penicillin, 100 μg/ml streptomycin, 50 μM 2β-mercaptoethanol, and 2 mM L-glutamine. 12×10^4 cells of the T-cell line specific to MOG p35-55, 5×10^5 irradiated (3000 rad) spleen cells (APC), and 10 μg/ml of MOG p35-55 were added to each well. In addition, peptides corresponding to the gp41 TMD region were added. Each determination was made at least in triplicate.
In order to exclude interaction between the examined peptides and the MOG p35-55 antigen, the MOG p35-55 antigen was initially added to the APCs in a test tube, and in a second test tube, the examined peptides were added to the T-cells. After 1 hour, the APCs and the T-cells were mixed and incubated for 72 h in a 96 well round bottom plate.
as §1
Lymph node cells were prepared from MOG 35-55/CFA immunized mice and their T cell response to the MOG 35-55 peptide was studied. T-cells were activated with the MOG 35-55 peptide and APC in the presence of gp41 TMD and TM11-19 (GLVGLRIVF; SEQ ID NO: 6) in three different concentrations (5, 25 and 50 μg/ml) and the proliferative responses was assayed. The T cell line proliferative response was determined after 3 days of incubation using a H3-thymidine uptake assay. […] The uninhibited T-cell proliferative responses were 9382±891 cpm.

[3] = biological target: T1, TLR2 TMD (Homo sapiens, UniProt O60603); assay: FRET between NBD labeled peptides and TLR2-Rho in LUVs; type: binding; details: 100 μM LUVs; peptide 0.4 μM; TLR2-Rho 0.025-0.8 μM
T1 construct: made in house; host or cells: chemical synthesis (Fmoc solid phase, Rink amide resin)
T1 sequence (O60603 589-609 limits assumed): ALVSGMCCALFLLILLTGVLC
Experimental: (§2) Thin films of PC were generated after dissolving the lipids in a 2:1 (v/v) mixture of CHCL3/MeOH and drying them under a stream of nitrogen gas while rotating them. The films were lyophilized overnight, sealed with argon gas to prevent oxidation of the lipids, and stored at −20° C. Before the experiments, films were suspended in the appropriate buffer and vortexed for 1.5 min. The lipid suspension underwent five cycles of freezing-thawing and extrusion through polycarbonate membranes with 1- and 0.1-μm diameter pores to create large unilamellar vesicles.
(§3) The FRET experiments were performed by using NBD and Rho labeled peptides. Fluorescence spectra were obtained at room temperature, with excitation set at 467 nm (10-nm slit) and emission scan at 500-600 nm (10-nm slits). […] Fluorescence spectra were obtained before and after addition of the Rho labeled peptide. The fluorescence values were corrected by subtracting the corresponding blank (buffer with the same vesicles concentration). […]
The energy transfer from the association of the gp41 TMD and the TLR2 TMD peptides was measured in the presence of 100 μM LUVs. […] As a control, the energy transfer between TLR2 and TAR1p/s (MVLGVFALLPLISGSL; SEQ ID NO:39) was measured. […]

[4] = system: CD3 molecules; assay: Co-localization of NBD-labeled peptides with CD3/TCR molecules in T cells (confocal fluorescence microscopy); type: cell-based, mice; details: NBD-conjugated peptide 2 μM, 1 h at 37° C., MOG35-55 T-cells
Experimental: Resting MOG35-55 T-cells or after activation for 72 h with MOG35-55 and APC were blocked with 1% BSA at room temperature to block non-specific binding. After 30 min the cells were washed and divided into aliquots containing 100,000 cells per 100 μl, and either gp41 TMD or a control membrane-binding amphipathic peptide (AMP-scr) was added (final concentration of 2 μM) for 1 h at 37° c. The cells were then washed and labeled with the tested antibody for 25 min at RT followed by biotin-conjugated anti-hamster IgG 25 min at RT and Streptavidin PE-Cy-5 10 min at RT (eBioscience San-Diego Calif., USA). Anti-hamster IgG followed by Streptavidin-Cy-5 served as a measure of non-specific binding amphipathic (AMP) peptide served as low TCR affinity control. The cells were analyzed by confocal fluorescence microscopy using Lab-Tek 8 chambers cover-glass (nunc) with living cells. The labeled cell samples were observed under a fluorescence confocal microscope. PE-Cy-5 excitation was done with HeNe laser 633 nm (emission data was collected with filter BA660IF, 660 nm long pass). NBD excitation was done with Ar laser 488 nm (emission data was collected from 505-525 nm). The co-localization percentage was quantified suing the “Simple PCI” software, and calculated as: (Co-localization fluorescence/NBD fluorescence)×100=co-localization percentage. […]

[5] = system: RAW264.7 macrophage cells; assay: TNFα secretion from RAW264.7 macrophages (ELISA); type: cell-based; details: peptide 20 μM for 2 hours
Experimental: RAW264.7 macrophage cells were plated in a 96 well plate at a concentration of 20,000 cells per well and grown over-night in RPMI medium supplemented with 10% FBS and 1% Pen-Strep and 1% L-glutamine at 37 degrees with 5% CO2. The following day media was changed and the gp41 TMD peptide was added at a concentration of 20 μM—dissolved in DMSO and diluted 1:100. The cells were incubated in the presence of the peptide for 2 hours afterwards the media was removed and cells were washed twice with 100 μl of fresh media. Lipopolysaccharide (LPS) and Lipoteichoic acid (LTA) ligands were added for 5 hours (LPS was added at the concentration of 10 ng/ml and LTA added at 500 ng/ml; cells were grown at this time with 200 μl). After 5 hours 150 were taken for the measurement of TNFα by an ELISA kit.
RAW264.7 macrophages were grown in the presence of gp41 TMD peptides for 2 hours at a concentration of 20 μM. As controls, RAW264.7 macrophages were grown in the presence of GGG peptides or in the absence of peptides (FIG. 10, GGG and Control, respectively). Thereafter, the medium was washed twice and 500 ng/ml of LTA or 10 ng/ml of LPS was added for 5 hours. In order to evaluate TNFα levels an ELISA assay was performed. Results are shown normalized to the level of TNFα secretion induced by the ligands in the absence of peptides (FIG. 10 Control). The result is an average of three measurements.

[6] = system: T-cells activated with anti-CD3; assay: T-cell activation induced by mitogenic anti-CD3 antibodies; type: cell-based, mice; details: 1 μg/ml anti-CD3 and APC; 50 μg/ml peptide
Experimental: as §1
Mitogenic anti-CD3 antibodies activate CD3 signaling regardless of the presence or absence of TCR (Keppler et al., 2006, J. Leukoc. Biol. 79, 616-627). Thus, T-cells were activated with 1 μg/ml anti-CD3 and APC in the presence of 50 μg/ml gp41 TMD or gp41 TM11-19, and the proliferative responses were assayed. The TCRα Core Peptide (GLRILLLKV; SEQ ID NO: 37; TCRα CP) served as a control peptide.

[7] = biological target: T2, TCRα CP peptide (Mus musculus, UniProt P01849); assay: FRET between TCRα CP-NBD and Rho labeled peptides in PC LUV; type: binding; details: acceptor-to-lipid ratio of 1:1000
T2 construct: TCRα CP peptide was labeled with NBD, as a donor fluorophore; made in house; host or cells: chemical synthesis (Fmoc solid phase, Rink amide resin)
Experimental: as §2, §3
Further investigations were performed to reveal whether gp41 TMD interacts solely with CD3 or perhaps it interacts with the TCRα TMD. […] Then, the fluorescence energy transfer (FRET) was measured between fluorescently labeled TCRα CP-NBD peptide and gp41 TM-Rho, TCRα CP-Rho or TAR/PS-Rho. […]

Substance	inhibition of T cell activation by PMA/ionomycin [1]	cell survival in culture versus PBS control [2]	percent of energy transfer with TLR2-Rho [3]	other results
GLRILLLKV [TCRα CP, reference compound]	did not inhibit	–	–	–
GLVGLRIVF-NH2 [TM11-19, GLVGLRIVF]	–	same survival in culture	–	–
KKKLFIMIVGGLVGLRIVFAVLSIKKK [gp41 TMD]	did not inhibit	same survival in culture	over 60%	inhibition of T-cell proliferation ([2]; MOG 35-55 peptide and APC, 5, 25 and 50 μg/ml peptide, 3 days, H3-thymidine uptake): dose dependent inhibition; co-localization percentage with the CD3 molecules [4]: 58.8%; TNFα secretion in response to LPS ([5]; then 10 ng/ml LPS for 5 hours): reduces TNFα secretion; TNFα secretion in response to LTA ([5]; then 500 ng/ml LTA for 5 hours): inhibits TNFα secretion; inhibition of T-cell activation by mitogenic anti-CD3 antibodies [6]: inhibited
MVLGVFALLPLISGSL [TAR1p/s, reference compound]	–	–	no energy transfer was detected	–
TCRα CP-Rho: TCRα CP peptide labeled with Rho-TAMRA as an acceptor fluorophore (GLRILLLKV-NH2; also: labeled with Rho-TAMRA, position not given here)	–	–	–	energy transfer from TCRα CP-NBD [7]: ~37%
